According to patent publication US8507463B2, “Nucleotide analogue prodrug and the preparation thereof” (Jiangsu Chia Tai Tianqing Pharmaceutical Co., Ltd., priority 2005, dated 2013):
Where two headings read alike, the source gives them in different places.

What was measured:
[1] = Stability analysis, overall conclusion in words; format: physicochemical; settings: from light, high temperature, high humidity and acceleration tests
[2] = format: physicochemical
[3] = Acute toxicity test, median lethal dose (LD50); settings: both sexes, mouse, in vivo, oral, mice, infused into the stomach, observed 14 days
Method: TD fumarate and TD crystalline form A were dissolved in 0.1M citric acid aqueous solution respectively, 140 healthy mice with 18˜22 g body-weight was selected, randomly divided into 14 groups, 10 per group, and the number of male and female mice were equal.
Following the preliminary test, TD fumarate and TD crystalline form A were administered to 7 different dosing groups by infusing into the stomach, observed for 14 days consecutively to investigate the toxic reaction and death cases of mice and then LD50 was calculated.

[4] = High temperature test (60° C.); format: physicochemical; settings: sealed ampoules
Method: Samples were sealed in clean glass ampoules and put in 60° C. thermostatic drying chamber, then they were taken on the fifth and tenth day respectively for determination, compared with the result of day 0, results were listed in the table below:
Samples were sealed in clean glass ampoules and put in 60° C. thermostatic drying chamber, then they were taken on the fifth and tenth day respectively for determination, compared with the result of day 0, results were listed in the table below

BEAGLE dogs = assay: Long term toxicity test (kidney function); format: in vivo; settings: 6 months
Method: BEAGLE dogs as animal models, Adefovir Dipivoxil as control sample, long term toxicity of TD crystalline form A was investigated, especially the effects of TD crystalline form A on kidney function was investigated.
30 BEAGLE dogs were randomly divided into 5 groups, 6 dogs per group. One group as blank control group, three groups as low dosing, medium dosing and high dosing group of TD crystalline form A respectively. The dosage of low dosing group was 5 mg/kg once per day, the dosage of medium dosing group was 15 mg/kg once per day and the dosage of high dosing group was 45 mg/kg once per day. The remaining group was Adefovir Dipivoxil control group, dosed at 40 mg/kg once per day.
Drugs mixed with salad oil were administered to the animals for 6 months consecutively, then observed for 21 consecutive days after drug withdrawal.

[5] = Light exposure test (4500±500 Lx); format: physicochemical; settings: light 4500±500 Lx
From the text: Samples were evenly spread out and placed in open culture dishes and the thickness thereof was less than 5 mm, then distances were adjusted until the illumination intensity was 4500±500 Lx, samples were taken on the fifth and tenth day respectively for determination, compared with the result of day 0, results were listed in the table below: […]

[6] = Acceleration test (40° C., relative humidity 75%); format: physicochemical
Method: Samples were sealed with polyethylene plastic bags, placed in the thermostatic drying chamber at 40±2° C. with relative humidity of 75±5% for 3 months. Then the samples were taken at the end of the first, second and third month respectively for determination, compared with the result of day 0, results were listed in the table below: […]

[7] = High humidity test (room temperature, relative humidity 75±5%); format: physicochemical; settings: 25° C.
Method: Samples were evenly spread out and placed in open culture dishes, wherein the thickness thereof was less than 5 mm, put in a thermostatic drying chamber at room temperature (25° C.) with relative humidity of 75±5%. Then the samples were taken on the fifth and tenth day respectively for determination, compared with the result of day 0, results were listed in the table below

Duck Hepatitis B Virus = assay: Anti-viral (anti-HBV) test in vivo, DHBV-DNA level by PCR; design: species or system GaoYou pockmark ducks; settings: ducks, 15 mg/ml group, once a day; day 0 level as base line of 100
Method: Two-month old pockmark ducks vertically infected with Duck Hepatitis B Virus were selected as animal models to conduct anti-HBV test in vivo, the efficacy was investigated. 80 GaoYou pockmark ducks were divided randomly into. 8 groups, 10 ducks per groups, three groups were given TD fumarate at the dosage of 5, 15, 45 mg/kg once a day respectively, other three groups were given Tenofovir Disoproxil Fumarate at the dosage of 5, 15, 45 mg/kg once a day respectively, other one group was given Adefovir Dipivoxil at the dosage of 15 mg/kg once a day and the remaining group was blank control group. All the groups were administered for 28 days, and blood samples were taken every 7 days to determine the inhibitory effect to the DHBV-DNA level by PCR, inhibition rate was listed in the following table.

[8] = human, cited from earlier work
[9] = BEAGLE dogs, 40 mg/kg once per day

C[C@H](Cn1cnc2c(N)ncnc21)OCP(=O)(OCOC(=O)C(C)(C)C)OCOC(=O)C(C)(C)C [TD crystalline form A, 9-[2-(R)-[bis[pivaloyloxymethoxy]-phosphinylmethoxy]propyl]adenine]
stability, overall conclusion in words [1]: good stabilities
solubility conclusion, 0.1N HCl ([2]; 0.1N HCl): soluble
solubility conclusion, 0.1N NaOH ([2]; 0.1N NaOH): slightly
solubility conclusion, anhydrous ethanol ([2]; anhydrous ethanol): freely soluble
solubility conclusion, methanol ([2]; methanol): freely soluble
amount of solvent (ml), 0.1N HCl ([2]; to dissolve 1 g of sample, 0.1N HCl): 33.5 mL
amount of solvent (ml), 0.1N NaOH ([2]; to dissolve 1 g of sample, 0.1N NaOH): 910 mL
amount of solvent (ml), anhydrous ethanol ([2]; to dissolve 1 g of sample, anhydrous ethanol): 5.0 mL
amount of solvent (ml), methanol ([2]; to dissolve 1 g of sample, methanol): 1.4 mL
amount of solvent (ml), water ([2]; to dissolve 1 g of sample, water): 880 mL
solubility conclusion, water ([2]; water): soluble
LD50 at 14 days ([3]; read-out: LD50): 4310 mg/kg
LD50 at 14 days ([3]; read-out: LD50, 95% confident limit): 2830 to 5440 mg/kg
content (%) ([4]; day 0): 99.1%
content (%) ([4]; day 5): 98.6%
content (%) ([4]; day 10): 98.4%
urea nitrogen (BEAGLE dogs; BEAGLE dogs, 5 mg/kg once per day): 17.1 ± 1.32 mmol/L
urea nitrogen (BEAGLE dogs; BEAGLE dogs, 15 mg/kg once per day): 14.2 ± 1.20 mmol/L
urea nitrogen (BEAGLE dogs; BEAGLE dogs, 45 mg/kg once per day): 15.7 ± 1.08 mmol/L
hematological, blood and urine biochemical parameters versus blank control group, in words (BEAGLE dogs; BEAGLE dogs, 5, 15 and 45 mg/kg once per day): no significant differences
content (%) ([5]; day 0): 98.7%
content (%) ([5]; day 5): 98.3%
content (%) ([5]; day 10): 98.5%
content (%) ([6]; end of month 1): 93.1%
content (%) ([6]; end of month 2): 90.5%
content (%) ([6]; end of month 3): 86.3%
content (%) ([6]; month 0): 99.7%
content (%) ([7]; day 0): 99.7%
Weight gain after moisture absorption (%) ([7]; day 5): 4.3%
content (%) ([7]; day 5): 98.5%
Weight gain after moisture absorption (%) ([7]; day 10): 5.6%
content (%) ([7]; day 10): 97.2%

CC(C)(C)C(=O)OCOP(=O)(COCCn1cnc2c(N)ncnc21)OCOC(=O)C(C)(C)C [Adefovir Dipivoxil]
DHBV-DNA level, First week (Duck Hepatitis B Virus): 85 ± 7
DHBV-DNA level, Fourth week (Duck Hepatitis B Virus): 33 ± 6
DHBV-DNA level, Second week (Duck Hepatitis B Virus): 70 ± 6
DHBV-DNA level, Third week (Duck Hepatitis B Virus): 55 ± 7
levels of serum carnine and urea nitrogen, in words (BEAGLE dogs; [9]): significantly higher
urea nitrogen (BEAGLE dogs; [9]): 24.7 ± 1.35 mmol/L
adverse reaction and renal dysfunction ([8]; 50 mg/day and 30 mg/day): higher incidence
nephrotoxicity in clinical trials ([8]; recent clinical trials): observed
